Data: patent US20160368853A1, “MONOESTERS, INNER COMPLEX SALTS OR MONOESTER SALTS OF HEXAHYDRO-BETA-ACID AND APPLICATION THEREOF AS ANIMAL FEED ADDITIVES” (GUANGZHOU INSIGHTER BIOTECHNOLOGY CO., LTD., priority 2014, published 2016)
Blank lines part the entries; values can stand above or below the substance they belong to.

Legend:
[1] = Thermo stability test of esters and/or salts of hexahydro-β-acid (2% premix, 100° C., HPLC); type: physicochemical; conditions: premix with corncob powder, initial content 2.0%, oven 100° C.
Method: Samples (the premixes) were placed in crucibles, and then placed in oven at 100° C. for different durations. Then 1.0 g of each of the samples (three duplicate samples from each sample) and 50 ml of ethanol were added into a conical flask, followed by the addition of 100 μL of concentrated hydrochloric acid. The mixture was then subjected to sonication for 5 minutes, and then filtrated. The filtrate was transferred into a 50 ml volumetric flask, topped up to the final volume with ethanol, and then filtered with a 0.45 μm microporous membrane and subjected to HPLC analysis.

[2] = system: fast-grown yellow feather broilers (female); assay: Application effect in broiler feed (30 days feeding trial); type: in vivo; conditions: for Average daily weight gain / Average weight gain / Feed conversion efficiency / Survival rate / Consumption: broilers, 30 days; for Consumption: 100 broilers per group
From the text: 500 1-day-aged, healthy, fast-grown yellow feather broilers (female) in the same growing state and similar in weight were randomly divided into five groups according to table 2, 100 broilers in each group. Broilers of each group were fed with different dosages of mono decanoate ester of hexahydro-β-acid or hexahydro-β-acid.

[3] = system: Duroc-Yorkshire-Landrace crossbred lean pigs; assay: Application effect in pig feed (14 days feeding trial); type: in vivo; conditions: for Average daily weight gain / Average weight gain / Feed conversion efficiency / Consumption: pigs; for Consumption: 20 pigs
From the text: 120 67-day-aged, Duroc-Yorkshire-Landrace crossbred lean pigs similar in weight were randomly divided into six groups, 20 pigs in each group.

[4] = Group 3, 5 mg/kg mixed with feed
[5] = Group 4, 25 mg/kg mixed with feed
[6] = Group 5, 5 mg/kg mixed with feed
[7] = Group 6, 25 mg/kg mixed with feed

Substance: calcium salt of acetate ester of hexahydro-β-acid
- Content when being heated at 100° C. for 20 h [1]: 1.21%
- Content when being heated at 100° C. for 44 h [1]: 0.31%

Substance: hexahydro-β-acid [reference compound]
- Content when being heated at 100° C. for 20 h [1]: 0.06%
- Content when being heated at 100° C. for 44 h [1]: 0%
- Average daily weight gain ([2]; 2 ppm mixed with feed): 24.83 g
- Average weight gain ([2]; 2 ppm mixed with feed): 745 g
- Feed conversion efficiency ([2]; 2 ppm mixed with feed): 1.983
- Survival rate ([2]; 2 ppm mixed with feed): 100%
- Consumption ([2]; 2 ppm mixed with feed): 147.76 kg
- Average daily weight gain ([2]; 20 ppm mixed with feed): 25.26 g
- Average weight gain ([2]; 20 ppm mixed with feed): 758 g
- Feed conversion efficiency ([2]; 20 ppm mixed with feed): 1.968
- Survival rate ([2]; 20 ppm mixed with feed): 100%
- Consumption ([2]; 20 ppm mixed with feed): 149.18 kg

Substance: zinc salt of acetate ester of hexahydro-β-acid
- Content when being heated at 100° C. for 20 h [1]: 1.64%
- Content when being heated at 100° C. for 44 h [1]: 0.70%

Substance: cetylate ester of hexahydro-β-acid
- Content when being heated at 100° C. for 20 h [1]: 1.98%
- Content when being heated at 100° C. for 44 h [1]: 1.93%
- feed conversion efficiency of the pigs ([3]; in words): significantly improved
- weight gain of the pigs ([3]; in words): significantly improved
- Average daily weight gain [3, 4]: 0.512 kg/day
- Average weight gain [3, 4]: 7.18 kg
- Feed conversion efficiency [3, 4]: 2.078
- Consumption [3, 4]: 298.4 kg
- Average daily weight gain [3, 5]: 0.570 kg/day
- Average weight gain [3, 5]: 7.985 kg
- Feed conversion efficiency [3, 5]: 1.706
- Consumption [3, 5]: 272.5 kg
- Average daily weight gain [3, 6]: 0.508 kg/day
- Average weight gain [3, 6]: 7.11 kg
- Feed conversion efficiency [3, 6]: 1.949
- Consumption [3, 6]: 277.2 kg
- Average daily weight gain [3, 7]: 0.580 kg/day
- Average weight gain [3, 7]: 8.12 kg
- Feed conversion efficiency [3, 7]: 1.690
- Consumption [3, 7]: 274.5 kg

Substance: Ferrous Salt of Acetate Ester of hexahydro-β-acid
- Content when being heated at 100° C. for 20 h [1]: 1.69%
- Content when being heated at 100° C. for 44 h [1]: 1.63%

Substance: laurate ester of hexahydro-β-acid
- Content when being heated at 100° C. for 20 h [1]: 2.0%
- Content when being heated at 100° C. for 44 h [1]: 1.96%

Substance: copper salt of acetate ester of hexahydro-β-acid
- Content when being heated at 100° C. for 20 h [1]: 1.50%
- Content when being heated at 100° C. for 44 h [1]: 1.28%

Substance: mono decanoate ester of hexahydro-β-acid
- Content when being heated at 100° C. for 20 h [1]: 1.93%
- Content when being heated at 100° C. for 44 h [1]: 1.82%
- feed conversion efficiency of the broilers ([2]; 30 days test period, in words): significantly improved
- weight gain of the broilers ([2]; 30 days test period, in words): significantly improved
- Average daily weight gain ([2]; 2 ppm mixed with feed): 25.6 g
- Average weight gain ([2]; 2 ppm mixed with feed): 768 g
- Feed conversion efficiency ([2]; 2 ppm mixed with feed): 1.926
- Survival rate ([2]; 2 ppm mixed with feed): 100%
- Consumption ([2]; 2 ppm mixed with feed): 147.94 kg
- Average daily weight gain ([2]; 20 ppm mixed with feed): 26.57 g
- Average weight gain ([2]; 20 ppm mixed with feed): 797 g
- Feed conversion efficiency ([2]; 20 ppm mixed with feed): 1.837
- Survival rate ([2]; 20 ppm mixed with feed): 100%
- Consumption ([2]; 20 ppm mixed with feed): 146.42 kg
- improvement of the productivity of the broilers ([2]; compared with hexahydro-β-acid in the same dosage): more significant than that of the broilers fed with hexahydro-β-acid in the same dosage

Substance: Cobalt Salt of Acetate Ester of hexahydro-β-acid
- Content when being heated at 100° C. for 20 h [1]: 0.17%
- Content when being heated at 100° C. for 44 h [1]: 0.12%

Substance: ferrous salt of hexahydro-β-acid
- Content when being heated at 100° C. for 20 h [1]: 0.14%
- Content when being heated at 100° C. for 44 h [1]: 0.05%

The remaining lines, values ahead:

- Content when being heated at 100° C. for 20 h [1]: 1.52%
- Content when being heated at 100° C. for 44 h [1]: 1.11%
Substance: mono acetate ester of hexahydro-β-acid

- Content when being heated at 100° C. for 20 h [1]: 0%
- Content when being heated at 100° C. for 44 h [1]: 0%
Substance: manganese salt of acetate ester of hexahydro-β-acid

- Content when being heated at 100° C. for 20 h [1]: 0.95%
- Content when being heated at 100° C. for 44 h [1]: 0.52%
Substance: zinc salt of hexahydro-β-acid

- Content when being heated at 100° C. for 20 h [1]: 0.35%
- Content when being heated at 100° C. for 44 h [1]: 0.09%
Substance: calcium salt of hexahydro-β-acid

- Content when being heated at 100° C. for 20 h [1]: 1.49%
- Content when being heated at 100° C. for 44 h [1]: 0.91%
Substance: magnesium salt of hexahydro-β-acid

- Content when being heated at 100° C. for 20 h [1]: 1.42%
- Content when being heated at 100° C. for 44 h [1]: 0.7%
Substance: magnesium salt of acetate ester of hexahydro-β-acid
